Values after ≈ are worked out from the molar mass of the structure shown.
How the values were obtained:
Candida albicans [1] = test: Compound was screened in vitro for antifungal activity against Candida albicans (CA 62376); type: functional
Candida albicans [2] = test: Compound was screened in vitro for antifungal activity against Candida albicans (CA 442); type: functional
Pichia kudriavzevii = test: In vitro antifungal activity against Candida krusei (CK 28838); type: functional
Candida albicans [3] = test: In vitro antifungal activity against Candida albicans (CA 10231); type: functional
Homo sapiens = species: Homo sapiens; test: Inhibitory activity against human concanavalin-A proliferation assay; type: functional
Candida albicans [4] = test: Compound was screened in vitro for antifungal activity against Candida albicans (CA 38247); type: functional
Candida tropicalis [5] = test: In vitro antifungal activity against Candida tropicalis (CT 750); type: functional
Candida albicans [6] = test: In vitro for antifungal activity against Candida albicans (CA 579a); type: functional
[7] = molecular target: Peptidyl-prolyl cis-trans isomerase FKBP1A (Homo sapiens, UniProt P62942); test: The compound was tested for binding affinity to FK506 binding protein 12 using Rapamycin as control, with an ascomycin conjugate of alkaline phosphatase in a competition binding assay
Candida albicans [8] = test: In vitro antifungal activity against Candida albicans (CA 38247); Weak; type: functional, organism-based
Candida albicans [9] = test: Compound was screened in vitro for antifungal activity at a minimum inhibitory concentration (~100 ug/mL) against […] ([…]); Not affected; type: functional
Candida albicans [10] = test: In vitro antifungal activity against Candida albicans (CA 442); Weak; type: functional, organism-based
Aspergillus niger [11] = test: In vitro antifungal activity at a minimum inhibitory concentration (~100 ug/mL) against Aspergillus niger; Not affected; type: functional; conditions: Aspergillus niger; read-out: MIC
Candida tropicalis [12] = test: Compound was screened in vitro for antifungal activity against Candida tropicalis (CT 750)
Candida albicans [13] = test: In vitro antifungal activity against Candida albicans (CA 62376); Weak; type: functional, organism-based
Nakaseomyces glabratus = test: In vitro antifungal activity against Torulopsis glabrata (TG 15545); type: functional
Candida albicans [14] = test: Compound was screened in vitro for antifungal activity against Candida albicans (CA 38247); weak; type: functional, organism-based
Candida albicans [15] = test: Compound was screened in vitro for antifungal activity at a minimum inhibitory concentration (~100 ug/mL) against […] (CA 34140); not affected; type: functional
Aspergillus niger [16] = test: Compound was screened in vitro for antifungal activity at a minimum inhibitory concentration (~100 ug/mL) against Aspergillus niger; not affected; type: functional
Candida albicans [17] = test: Compound was screened in vitro for antifungal activity against Candida albicans (CA 442); weak; type: functional, organism-based
Candida albicans [18] = test: Compound was screened in vitro for antifungal activity against Candida albicans (CA 62376); weak; type: functional, organism-based
Candida albicans [19] = test: In vitro antifungal activity against […] (CA 34140); Not affected.; type: functional
Aspergillus niger [20] = test: Compound was screened in vitro for antifungal activity at a minimum inhibitory concentration (~100 ug/mL) against Aspergillus nigerl; Not effected; type: functional
Candida albicans [21] = test: Compound was screened in vitro for antifungal and immunosuppressive activity against Candida albicans (CA 38247); type: functional

Sequence of Peptidyl-prolyl cis-trans isomerase FKBP1A (P62942 whole entry): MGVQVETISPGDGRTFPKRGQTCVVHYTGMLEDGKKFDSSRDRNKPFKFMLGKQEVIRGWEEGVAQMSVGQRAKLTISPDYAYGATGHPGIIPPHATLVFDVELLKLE

| MIC (Candida albicans [1]) [µg/mL] | MIC (Candida albicans [2]) [µg/mL] | MIC (Pichia kudriavzevii) [µg/mL] | MIC (Candida albicans [3]) [µg/mL] | MIC (Candida albicans [4]) [µg/mL] | MIC (Candida tropicalis [5]) [µg/mL] | MIC (Candida albicans [6]) [µg/mL] | MIC (Nakaseomyces glabratus) [µg/mL] | SMILES | IC50 (Homo sapiens) [nM] | further results |
| --- | --- | --- | --- | --- | --- | --- | --- | --- | --- | --- |
| 0.78 (≈ 0.849 µM) | 1.56 (≈ 1.7 µM) | 0.78 (≈ 0.849 µM) | 1.56 (≈ 1.7 µM) | 1.56 (≈ 1.7 µM) | 1.56 (≈ 1.7 µM) | 1.56 (≈ 1.7 µM) |  | CO[C@H]1C[C@@H]2CC[C@@H](C)[C@@](O)(O2)C(=O)C(=O)N2CCCC[C@H]2C(=O)O[C@H]([C@H](C)C[C@@H]2CCC(O)[C@H](OC)C2)CC(=O)[C@H](C)/C=C(\C)[C@@H](O)[C@@H](OC)C(=O)[C@H](C)C[C@H](C)CCCC/C=C/1C (single isomer, unassigned; 3) | 3400 |  |
|  | > 100 | > 100 | > 100 | > 100 | > 100 | > 100 |  | CO[C@H]1C[C@@H]2CC[C@@H](C)[C@@](O)(O2)C(=O)C(=O)N2CCCC[C@H]2C(=O)O[C@H]([C@H](C)C[C@@H]2CC[C@@H](OC(=O)N3CCOCC3)[C@H](OC)C2)CC(=O)[C@H](C)/C=C(\C)[C@@H](O)[C@@H](OC)C(=O)[C@H](C)C[C@H](C)CCCC/C=C/1C |  | IC50 [7]: > 1000 nM |
|  | > 100 | > 100 | > 100 | > 100 | > 100 | > 100 |  | CO[C@H]1C[C@@H]2CC[C@@H](C)[C@@](O)(O2)C(=O)C(=O)N2CCCC[C@H]2C(=O)O[C@H]([C@H](C)C[C@@H]2CC[C@@H](OC(=O)N3CCCCC3)[C@H](OC)C2)CC(=O)[C@H](C)/C=C(\C)[C@@H](O)[C@@H](OC)C(=O)[C@H](C)C[C@H](C)CCCC/C=C/1C |  |  |
| 0.2 (≈ 0.219 µM) | 0.2 (≈ 0.219 µM) | 0.78 (≈ 0.853 µM) | 0.2 (≈ 0.219 µM) | 0.2 (≈ 0.219 µM) |  | 0.2 (≈ 0.219 µM) | < 0.1 | CO[C@H]1C[C@@H]2CC[C@@H](C)[C@@](O)(O2)C(=O)C(=O)N2CCCC[C@H]2C(=O)O[C@H]([C@H](C)C[C@@H]2CC[C@@H](O)[C@H](OC)C2)CC(=O)[C@H](C)/C=C(\C)[C@@H](O)[C@@H](OC)C(=O)[C@H](C)C[C@H](C)/C=C/C=C/C=C/1C [SIROLIMUS] | 1 | MIC (Candida albicans [8]): Weak; MIC (Candida albicans [9]): ~100 µg/mL (≈ 109 µM); MIC (Candida albicans [10]): Weak; MIC (Aspergillus niger [11]): ~100 µg/mL (≈ 109 µM); MIC (Candida tropicalis [12]): 0.2 µg/mL (≈ 0.219 µM); MIC (Candida albicans [13]): Weak |
|  | > 100 | > 100 | > 100 | > 100 | > 100 | > 100 |  | CO[C@H]1C[C@@H]2CC[C@@H](C)[C@@](O)(O2)C(=O)C(=O)N2CCCC[C@H]2C(=O)O[C@H]([C@H](C)C[C@@H]2CC[C@@H](OC(=O)N3CCNCC3)[C@H](OC)C2)CC(=O)[C@H](C)/C=C(\C)[C@@H](O)[C@@H](OC)C(=O)[C@H](C)C[C@H](C)CCCC/C=C/1C |  |  |
|  |  | 0.78 (≈ 0.815 µM) | 1.56 (≈ 1.63 µM) |  | 1.56 (≈ 1.63 µM) | 1.56 (≈ 1.63 µM) | 0.78 (≈ 0.815 µM) | COC(=O)N[C@@H]1C[C@@H]2CC[C@@H](C)[C@@](O)(O2)C(=O)C(=O)N2CCCC[C@H]2C(=O)O[C@H]([C@H](C)C[C@@H]2CC[C@@H](O)[C@H](OC)C2)CC(=O)[C@H](C)/C=C(\C)[C@@H](O)[C@@H](OC)C(=O)[C@H](C)C[C@H](C)/C=C/C=C/C=C/1C | 1380 | MIC (Candida albicans [14]): Weak; MIC (Candida albicans [15]): ~100 µg/mL (≈ 104 µM); MIC (Aspergillus niger [16]): ~100 µg/mL (≈ 104 µM); MIC (Candida albicans [17]): Weak; MIC (Candida albicans [18]): Weak |
|  |  | 3.12 (≈ 3.26 µM) | 6.25 (≈ 6.53 µM) |  | 6.25 (≈ 6.53 µM) | 6.25 (≈ 6.53 µM) | 1.56 (≈ 1.63 µM) | CO[C@@H]1C[C@H](C[C@@H](C)[C@@H]2CC(=O)[C@H](C)/C=C(\C)[C@@H](O)[C@@H](OC)C(=O)[C@H](C)C[C@H](C)/C=C/C=C/C=C(\C)[C@H](N(O)C(C)=O)C[C@@H]3CC[C@@H](C)[C@@](O)(O3)C(=O)C(=O)N3CCCC[C@H]3C(=O)O2)CC[C@H]1O | 95 | MIC (Candida albicans [14]): Weak; MIC (Candida albicans [15]): ~100 µg/mL (≈ 104 µM); MIC (Aspergillus niger [16]): ~100 µg/mL (≈ 104 µM); MIC (Candida albicans [17]): Weak; MIC (Candida albicans [18]): Weak |
| 1.56 (≈ 1.7 µM) | 1.56 (≈ 1.7 µM) | 1.56 (≈ 1.7 µM) | 1.56 (≈ 1.7 µM) | 1.56 (≈ 1.7 µM) | 1.56 (≈ 1.7 µM) | 1.56 (≈ 1.7 µM) |  | CO[C@H]1C[C@@H]2CC[C@@H](C)[C@@](O)(O2)C(=O)C(=O)N2CCCC[C@H]2C(=O)O[C@H]([C@H](C)C[C@@H]2CCC(O)[C@H](OC)C2)CC(=O)[C@H](C)/C=C(\C)[C@@H](O)[C@@H](OC)C(=O)[C@H](C)C[C@H](C)CCCC/C=C/1C (single isomer, unassigned; 2) | 1590 |  |
|  |  | 0.78 (≈ 0.867 µM) | 1.56 (≈ 1.73 µM) |  | 1.56 (≈ 1.73 µM) | 3.12 (≈ 3.47 µM) | 0.78 (≈ 0.867 µM) | CO[C@@H]1C[C@H](C[C@@H](C)[C@@H]2CC(=O)[C@H](C)/C=C(\C)[C@@H](O)[C@@H](OC)C(=O)[C@H](C)C[C@H](C)/C=C/C=C/C=C(\C)[C@H](O)C[C@@H]3CC[C@@H](C)[C@@](O)(O3)C(=O)C(=O)N3CCCC[C@H]3C(=O)O2)CC[C@H]1O | 6.3 | MIC (Candida albicans [8]): Weak; MIC (Candida albicans [10]): Weak; MIC (Aspergillus niger [11]): ~100 µg/mL (≈ 111 µM); IC50 [7]: 14 nM; MIC (Candida albicans [19]): ~100 µg/mL (≈ 111 µM); MIC (Candida albicans [13]): Weak |
|  |  | > 100 | 50 (≈ 49.7 µM) |  | > 100 | > 100 |  | CO[C@H]1C[C@@H]2CC[C@@H](C)[C@@](O)(O2)C(=O)C(=O)N2CCCC[C@H]2C(=O)O[C@H]([C@H](C)C[C@@H]2CC[C@@H](OC(=O)N(C)OC)[C@H](OC)C2)CC(=O)[C@H](C)/C=C(\C)[C@@H](O)[C@@H](OC)C(=O)[C@H](C)C[C@H](C)CCCC/C=C/1C | 2470 | IC50 [7]: > 1000 nM |
|  |  | 1.56 (≈ 1.51 µM) | 12.5 (≈ 12.1 µM) |  | 12.5 (≈ 12.1 µM) | 25 (≈ 24.1 µM) | 1.56 (≈ 1.51 µM) | CO[C@@H]1C[C@H](C[C@@H](C)[C@@H]2CC(=O)[C@H](C)/C=C(\C)[C@@H](O)[C@@H](OC)C(=O)[C@H](C)C[C@H](C)/C=C/C=C/C=C(\C)[C@@H](N(O)C(=O)Oc3ccccc3)C[C@@H]3CC[C@@H](C)[C@@](O)(O3)C(=O)C(=O)N3CCCC[C@H]3C(=O)O2)CC[C@H]1O | 1100 | MIC (Candida albicans [8]): Weak; MIC (Candida albicans [10]): Weak; MIC (Aspergillus niger [11]): ~100 µg/mL (≈ 96.6 µM); IC50 [7]: 2.1 nM; MIC (Candida albicans [19]): ~100 µg/mL (≈ 96.6 µM); MIC (Candida albicans [13]): Weak |
|  |  | 6.25 (≈ 6.08 µM) | 25 (≈ 24.3 µM) |  | 25 (≈ 24.3 µM) | 50 (≈ 48.6 µM) | 6.25 (≈ 6.08 µM) | CO[C@@H]1C[C@H](C[C@@H](C)[C@@H]2CC(=O)[C@H](C)/C=C(\C)[C@@H](O)[C@@H](OC)C(=O)[C@H](C)C[C@H](C)/C=C/C=C/C=C(\C)[C@H](N(O)C(=O)N3CCOCC3)C[C@@H]3CC[C@@H](C)[C@@](O)(O3)C(=O)C(=O)N3CCCC[C@H]3C(=O)O2)CC[C@H]1O | 1740 | MIC (Candida albicans [8]): Weak; MIC (Candida albicans [10]): Weak; MIC (Aspergillus niger [20]): ~100 µg/mL (≈ 97.2 µM); MIC (Candida albicans [19]): ~100 µg/mL (≈ 97.2 µM); MIC (Candida albicans [13]): Weak |
| > 100 | > 100 | > 100 | > 100 |  | > 100 | > 100 |  | CO[C@H]1C[C@@H]2CC[C@@H](C)[C@@](O)(O2)C(=O)C(=O)N2CCCC[C@H]2C(=O)O[C@H]([C@H](C)C[C@@H]2CC[C@@H](OC(=O)c3ccc([N+](=O)[O-])cc3)[C@H](OC)C2)CC(=O)[C@H](C)/C=C(\C)[C@@H](O)[C@@H](OC)C(=O)[C@H](C)C[C@H](C)CCCC/C=C/1C |  | MIC (Candida albicans [21]): > 100 µg/mL |
| > 100 | > 100 | > 100 | > 100 | > 100 | > 100 | > 100 |  | CO[C@H]1C[C@@H]2CC[C@@H](C)[C@@](O)(O2)C(=O)C(=O)N2CCCC[C@H]2C(=O)O[C@H]([C@H](C)C[C@@H]2CC[C@H](n3cnnn3)[C@H](OC)C2)CC(=O)[C@H](C)/C=C(\C)[C@@H](O)[C@@H](OC)C(=O)[C@H](C)C[C@H](C)CCCC/C=C/1C |  |  |

— ChEMBL document CHEMBL1133206, “Antifungal rapamycin analogues with reduced immunosuppressive activity” (Bioorg Med Chem Lett, 2000)
